Values of other authors as cited in US20150376254A1, “GAMMA-MSH ANALOGUES” (TXP Pharma GmbH, priority 2014, published 2015).

Legend:
[1] = tested on: normal human lung fibroblasts (NHLF); conditions: TGFβ1-induced NHLF; at higher doses; detailed in U.S. provisional application 61/785,631
MC5r = MC5r (Homo sapiens, UniProt P33032); conditions: J. Med. Chem. 2005, 48, 1839-1848
MC3r = MC3r (Homo sapiens, UniProt P41968); conditions: relative to MC4r; J. Med. Chem. 2005, 48, 1839-1848
MC3r, sequence (P41968 whole entry): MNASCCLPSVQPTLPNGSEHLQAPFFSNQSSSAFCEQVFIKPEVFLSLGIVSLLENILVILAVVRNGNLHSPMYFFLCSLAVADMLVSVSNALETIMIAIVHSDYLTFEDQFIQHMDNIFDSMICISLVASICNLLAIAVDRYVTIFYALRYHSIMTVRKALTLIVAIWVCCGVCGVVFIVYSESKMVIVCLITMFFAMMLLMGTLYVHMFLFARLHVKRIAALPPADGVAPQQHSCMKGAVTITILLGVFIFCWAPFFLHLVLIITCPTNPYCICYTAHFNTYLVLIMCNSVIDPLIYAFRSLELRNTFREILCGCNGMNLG

MC5r, sequence (P33032 whole entry): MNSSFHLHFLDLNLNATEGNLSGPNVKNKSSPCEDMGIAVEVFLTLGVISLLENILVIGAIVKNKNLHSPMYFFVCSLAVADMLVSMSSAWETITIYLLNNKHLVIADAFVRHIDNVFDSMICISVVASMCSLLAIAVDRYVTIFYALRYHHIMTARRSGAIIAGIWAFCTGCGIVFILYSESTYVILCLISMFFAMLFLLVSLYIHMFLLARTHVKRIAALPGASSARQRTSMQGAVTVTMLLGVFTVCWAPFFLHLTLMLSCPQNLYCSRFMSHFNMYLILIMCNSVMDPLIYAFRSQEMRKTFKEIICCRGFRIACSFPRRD

| binding affinity against the MC5r (MC5r) | affinity to the MC3r (MC3r) | Substance | ECM collagen [1] |
| --- | --- | --- | --- |
| – | – | ACTH: adrenocorticotropic hormone, a melanocortin peptide primarily binding MC2R (SYSMEHFRWGKPVGKKRRPVKVYPNGAEDESAEAFPLEF; Corticotropin; UniProt P01189 138-176, looked up) | statistically significant reduction |
| weak | higher affinity | γ-MSH | – |
